Assay results taken from patent US7884204B2, “Phenylalanine derivatives” (Ajinomoto Co., Inc., priority 2001, dated 2011).

Legend:
integrin α4β7 = molecular target: T1, integrin α4β7 (Homo sapiens, UniProt P13612+P26010); assay: VCAM antagonistic activity (VCAM-1/α4β7 binding assay), RPMI-8866 cells binding to VCAM-1; type: cell-based; conditions: RPMI-8866 cells binding to recombinant human VCAM-1, binding buffer containing 4 mM MnCl2, 30 minutes at room temperature
T1 construct: lymphoma cell strain RPMI-8866 of human B cells, known to express integrin α4β7; endogenous in cells; host or cells: RPMI-8866, human B-cell lymphoma line
T1 sequence (P13612 34-1032): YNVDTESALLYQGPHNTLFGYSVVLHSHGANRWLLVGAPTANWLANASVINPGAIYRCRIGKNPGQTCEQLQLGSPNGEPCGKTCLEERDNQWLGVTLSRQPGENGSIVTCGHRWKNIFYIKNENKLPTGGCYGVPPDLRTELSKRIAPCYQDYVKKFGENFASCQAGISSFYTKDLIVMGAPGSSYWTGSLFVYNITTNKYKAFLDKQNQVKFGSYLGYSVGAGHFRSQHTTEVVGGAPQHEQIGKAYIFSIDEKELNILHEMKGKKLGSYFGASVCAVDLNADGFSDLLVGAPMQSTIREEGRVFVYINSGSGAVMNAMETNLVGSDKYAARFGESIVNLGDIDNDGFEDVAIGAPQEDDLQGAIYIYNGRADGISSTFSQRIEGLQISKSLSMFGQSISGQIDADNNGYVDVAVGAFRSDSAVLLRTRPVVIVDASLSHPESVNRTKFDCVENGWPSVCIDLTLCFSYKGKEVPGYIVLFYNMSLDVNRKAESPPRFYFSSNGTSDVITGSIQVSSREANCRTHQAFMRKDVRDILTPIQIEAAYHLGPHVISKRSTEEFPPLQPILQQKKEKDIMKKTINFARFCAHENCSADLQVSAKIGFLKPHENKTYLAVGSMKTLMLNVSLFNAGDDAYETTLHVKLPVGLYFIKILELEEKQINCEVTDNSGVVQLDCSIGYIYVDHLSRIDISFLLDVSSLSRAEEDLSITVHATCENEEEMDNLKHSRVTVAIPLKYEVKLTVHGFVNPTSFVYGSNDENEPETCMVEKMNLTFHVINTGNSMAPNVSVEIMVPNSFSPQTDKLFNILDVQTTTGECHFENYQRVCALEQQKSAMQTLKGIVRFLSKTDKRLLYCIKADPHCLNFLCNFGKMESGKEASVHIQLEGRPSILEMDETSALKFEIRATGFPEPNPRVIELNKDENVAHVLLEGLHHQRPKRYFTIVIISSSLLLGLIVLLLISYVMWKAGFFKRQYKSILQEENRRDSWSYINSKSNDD
T1 sequence (P26010 20-798): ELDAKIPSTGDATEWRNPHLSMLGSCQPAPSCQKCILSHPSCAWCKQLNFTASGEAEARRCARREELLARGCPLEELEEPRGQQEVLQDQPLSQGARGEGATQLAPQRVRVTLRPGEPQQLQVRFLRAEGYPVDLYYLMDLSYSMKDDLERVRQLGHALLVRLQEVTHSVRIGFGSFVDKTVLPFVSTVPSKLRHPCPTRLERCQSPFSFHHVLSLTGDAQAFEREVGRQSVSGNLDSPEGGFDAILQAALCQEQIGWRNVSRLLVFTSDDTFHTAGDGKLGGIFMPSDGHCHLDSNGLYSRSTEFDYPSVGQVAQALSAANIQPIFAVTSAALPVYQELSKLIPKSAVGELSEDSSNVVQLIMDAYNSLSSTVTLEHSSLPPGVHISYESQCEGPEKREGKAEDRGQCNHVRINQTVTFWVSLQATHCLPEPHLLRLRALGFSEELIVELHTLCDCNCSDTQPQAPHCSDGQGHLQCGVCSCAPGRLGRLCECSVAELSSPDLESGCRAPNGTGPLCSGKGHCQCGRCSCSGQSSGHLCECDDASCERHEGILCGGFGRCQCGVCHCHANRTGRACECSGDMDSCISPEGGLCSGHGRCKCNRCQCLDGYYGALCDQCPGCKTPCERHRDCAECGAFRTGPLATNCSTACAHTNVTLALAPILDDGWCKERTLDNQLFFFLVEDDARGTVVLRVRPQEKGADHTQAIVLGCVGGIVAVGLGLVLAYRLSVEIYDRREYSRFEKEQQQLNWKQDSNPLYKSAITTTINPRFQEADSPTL
Procedure: VCAM Antagonistic Activity (VCAM-1/α4β7 Binding Assay)
The capacity of a test substance antagonistic to the binding of lymphoma cell strain RPMI-8866 of human B cells, known to express integrin α4β7, to VCAM-1 was determined.
(§1) 100 μl/well of a solution (500 ng/ml) of recombinant human VCAM-1 (R & D systems) solution diluted with buffer A (0.1 M NaHCO3, pH 9.6) was added to a micro titer plate having 96 wells (Nunc Maxisorp). After the incubation at 4° C. overnight, unbound VCAM-1 was removed by washing once with PBS. After completion of the washing, a buffer (buffer B) obtained by diluting Block Ace (Dainippon Pharmaceutical Co., Ltd.) with PBS to ¼ concentration was added in an amount of 150 μl/well. After the incubation at room temperature for 1 hour, buffer B was removed and the plate was washed with PBS once.
RPMI-8866 cells were incubated in Dulbecco modified Eagle medium containing 10 μg/ml of Calcein-AM (Wako Pure Chemical Industries, Ltd.) (SIGMA, hereinafter referred to as “DMEM”) at 37° C. for 30 minutes to label with fluorescence. The cells were again suspended in a binding buffer (20 mM HEPES, DMEM containing 0.1% BSA) containing 4 mM of MnCl2.
(§2) 50 μl of a test substance of various concentrations obtained by the dilution with the binding buffer was added to the plate. Immediately thereafter, 50 μl (final volume: 100 μl/well) of the fluorescent RPMI-8866 cells (4×10^6 cells/ml) were added thereto, and they were incubated at room temperature for 30 minutes. After the shaking on a plate shaker (IKA MTS-4) at 800 rpm for 30 seconds, the solution was immediately removed to remove the unbound cells. The fluorescence quantity of the bound cells remaining in the wells was determined with a fluorescent plate reader (Wallac 1420 ARVO multi-label counter) (filter excitation wave length: 485 nm, emission wave length: 535 nm). The fluorescent strength thus obtained is proportional to the number of RPMI-8866 cells bound to VCAM-1 and remaining on the plate. The binding rate of each test material in various concentrations was determined while the fluorescent strength of the test material-free well was determined to be 100%. The concentration IC50 for the 50% binding inhibition was calculated.

integrin α4β1 = molecular target: T2, integrin α4β1 (Homo sapiens, UniProt P05556+P13612); assay: VCAM antagonist activity (VCAM-1/α4β1 binding assay), Jurkat cells binding to VCAM-1; type: cell-based; conditions: Jurkat cells binding to recombinant human VCAM-1, 30 minutes at room temperature; read-out: VCAM antagonistic activity IC50, α4β1
T2 construct: cell strain Jurkat (ATCC TIB-152) of human T cells, known to express integrin α4β1; endogenous in cells; host or cells: Jurkat (ATCC TIB-152), human T cells
T2 sequence (P05556 21-798, one chain of several): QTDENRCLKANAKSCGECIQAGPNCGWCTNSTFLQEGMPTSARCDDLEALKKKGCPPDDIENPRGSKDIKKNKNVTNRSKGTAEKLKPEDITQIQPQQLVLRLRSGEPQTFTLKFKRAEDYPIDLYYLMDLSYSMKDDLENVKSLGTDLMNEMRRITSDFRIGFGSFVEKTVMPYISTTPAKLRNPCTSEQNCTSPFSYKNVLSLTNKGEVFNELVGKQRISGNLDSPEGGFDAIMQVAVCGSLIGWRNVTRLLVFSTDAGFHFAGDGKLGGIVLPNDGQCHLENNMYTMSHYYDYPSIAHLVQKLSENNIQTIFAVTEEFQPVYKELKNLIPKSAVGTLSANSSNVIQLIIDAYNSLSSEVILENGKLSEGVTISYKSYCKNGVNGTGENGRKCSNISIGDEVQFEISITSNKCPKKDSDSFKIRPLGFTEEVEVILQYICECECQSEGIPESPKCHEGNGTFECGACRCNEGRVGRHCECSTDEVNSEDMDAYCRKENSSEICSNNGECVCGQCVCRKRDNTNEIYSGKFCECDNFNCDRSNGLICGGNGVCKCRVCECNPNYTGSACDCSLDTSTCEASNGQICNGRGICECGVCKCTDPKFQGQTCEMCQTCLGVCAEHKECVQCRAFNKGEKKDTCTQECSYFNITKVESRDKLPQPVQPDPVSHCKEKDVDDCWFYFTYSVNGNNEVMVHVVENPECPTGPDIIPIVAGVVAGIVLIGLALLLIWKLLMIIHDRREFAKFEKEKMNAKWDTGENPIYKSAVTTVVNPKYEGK
Procedure: VCAM Antagonist Activity (VCAM-1/α4β1 Binding Assay)
The capacity of a test substance antagonistic to the binding of cell strain Jurkat (ATCC TIB-152) of human T cells, known to express integrin α4β1, to VCAM-1 was determined.
as §1
Jurkat cells were washed with Dulbecco modified Eagle medium (SIGMA, hereinafter referred to as “DMEM”) twice and then incubated in DMEM containing 10 μg/ml of Calcein-AM (Wako Pure Chemical Industries, Ltd.) at 37° C. in dark place for 30 minutes to label with fluorescence. The cells were again suspended in a binding buffer (20 mM HEPES, DMEM containing 0.1% BSA).
as §2, with “Jurkat” for “RPMI-8866”

Row | Structure (SMILES) | IC50 (integrin α4β7) [nM] | IC50 (integrin α4β1) [nM]
1 | O=C(N[C@@H](Cc1ccc(-n2ncc3ccccc3c2=O)cc1)C(=O)O)c1c(Cl)cccc1Cl [Example 21] | 2.4 | 190
2 | Cn1c(=O)c(-c2ccc(C[C@H](NC(=O)c3c(Cl)cccc3Cl)C(=O)O)cc2)cc2cc(O)ccc21 [Example 33] | 21 | 255
3 | Cn1c(=O)c(-c2ccc(C[C@H](NC(=O)c3c(Cl)ccnc3Cl)C(=O)O)cc2)cc2ccccc21 [Example 19] | 11 | 290
4 | CC1CN(c2ccc(C[C@H](NC(=O)c3c(Cl)cccc3Cl)C(=O)O)cc2)C(=O)c2ccccc21 (some centres unmarked) [Example 46] | 67 | 
5 | Cn1c(=O)c(-c2ccc(C[C@H](NC(=O)c3c(Cl)cccc3Cl)C(=O)O)cc2)cc2cc(S(C)(=O)=O)ccc21 [Example 30] | 3.9 | 64
6 | CCCc1c(-c2ccc(C[C@H](NC(=O)c3c(Cl)cccc3Cl)C(=O)O)cc2)c(=O)n(C)c2ccccc12 [Example 45] | 7.3 | 37
7 | O=C(N[C@@H](Cc1ccc(N2C(=O)c3cccc(=O)n3C2=O)cc1)C(=O)O)c1c(Cl)cccc1Cl [Example 22] | 150 | 
8 | Cn1c(=O)c(-c2ccc(C[C@H](NC(=O)c3c(Cl)cc(NS(C)(=O)=O)cc3Cl)C(=O)O)cc2)cc2ccccc21 [Example 31] | 3 | 47
9 | COc1c(-c2ccc(C[C@H](NC(=O)c3c(Cl)cccc3Cl)C(=O)O)cc2)c(=O)n(C)c2ccc(Cl)cc12 [Example 44] | 11 | 168

The remaining lines, values ahead:

Row | IC50 (integrin α4β7) [nM] | IC50 (integrin α4β1) [nM] | Structure (SMILES)
10 | 35 |  | Cc1cn(-c2ccc(C[C@H](NC(=O)c3c(Cl)cccc3Cl)C(=O)O)cc2)c(=O)c2ccccc12 [Example 23]
11 | 18 | 320 | CCC(CC)(C(=O)N[C@@H](Cc1ccc(-c2cc3ccccc3n(C)c2=O)cc1)C(=O)O)C(=O)N1CCCC1 [Example 8, (2S)-2-[[2-ethyl-2-(1-pyrrolidinecarbonyl)butanoyl]amino]-3-[4-(1-methyl-2-oxo-1,2-dihydro-3-quinolinyl)phenyl]propionic acid]
12 | 3.3 | 150 | Cn1c(=O)c(-c2ccc(C[C@H](NC(=O)c3c(Cl)cccc3Cl)C(=O)O)cc2)cc2cc([N+](C)(C)C)ccc21 [Example 14]
13 | 44 |  | CCC(CC)(C(=O)N[C@@H](Cc1ccc(N2C(=O)c3cccc(C)c3C2=O)cc1)C(=O)O)C(=O)N1CCCC1 [Example 26]
14 | 10 | 178 | CCn1c(=O)c(-c2ccc(C[C@H](NC(=O)c3c(Cl)cccc3Cl)C(=O)O)cc2)c(C)c2ccccc21 [Example 43]
15 | 4.1 | 52 | Cc1c(-c2ccc(C[C@H](NC(=O)c3c(Cl)cccc3Cl)C(=O)O)cc2)c(=O)n(C)c2ccccc12 [Example 42]
16 | 3.5 | 44 | COc1c(-c2ccc(C[C@H](NC(=O)c3c(Cl)cccc3Cl)C(=O)O)cc2)c(=O)n(C)c2ccccc12 [Example 6, (2S)-2-[(2,6-dichlorobenzoyl)amino]-3-[4-(4-methoxy-1-methyl-2-oxo-1,2-dihydro-3-quinolinyl)phenyl]propionic acid]
17 | 97 |  | O=C(N[C@@H](Cc1ccc(N2Cc3ccccc3CC2=O)cc1)C(=O)O)c1c(Cl)cccc1Cl [Example 47]
18 | 90 | 620 | Cn1c(=O)c(-c2ccc(C[C@H](NC(=O)c3c(Cl)cccc3Cl)C(=O)O)cc2)cc2ccccc21 [Example 1, (2S)-2-[(2,6-dichlorobenzoyl)amino]-3-[4-(1-methyl-2-oxo-1,2-dihydro-3-quinolinyl)phenyl]propionic acid]
19 | 4.5 | 74 | CCOc1c(-c2ccc(C[C@H](NC(=O)c3c(Cl)cccc3Cl)C(=O)O)cc2)c(=O)n(C)c2ccccc12 [Example 41]
20 | 6.5 | 115 | CCCOc1c(-c2ccc(C[C@H](NC(=O)c3c(Cl)cccc3Cl)C(=O)O)cc2)c(=O)n(C)c2ccccc12 [Example 40]
